Laboratory results taken from article PMC10355420, “The glutathione import system satisfies the Staphylococcus aureus nutrient sulfur requirement and promotes interspecies competition” (PLOS Genetics, 2023).

Target: T1, recombinant GisA, SAUSA300_0200 (Staphylococcus aureus, UniProt A0A0H2XI71)
T1 construct: His-tagged, pET28b, purified from E. coli slyD mutant by Ni-NTA; ATPase subunit alone
T1 sequence (A0A0H2XI71 1-530): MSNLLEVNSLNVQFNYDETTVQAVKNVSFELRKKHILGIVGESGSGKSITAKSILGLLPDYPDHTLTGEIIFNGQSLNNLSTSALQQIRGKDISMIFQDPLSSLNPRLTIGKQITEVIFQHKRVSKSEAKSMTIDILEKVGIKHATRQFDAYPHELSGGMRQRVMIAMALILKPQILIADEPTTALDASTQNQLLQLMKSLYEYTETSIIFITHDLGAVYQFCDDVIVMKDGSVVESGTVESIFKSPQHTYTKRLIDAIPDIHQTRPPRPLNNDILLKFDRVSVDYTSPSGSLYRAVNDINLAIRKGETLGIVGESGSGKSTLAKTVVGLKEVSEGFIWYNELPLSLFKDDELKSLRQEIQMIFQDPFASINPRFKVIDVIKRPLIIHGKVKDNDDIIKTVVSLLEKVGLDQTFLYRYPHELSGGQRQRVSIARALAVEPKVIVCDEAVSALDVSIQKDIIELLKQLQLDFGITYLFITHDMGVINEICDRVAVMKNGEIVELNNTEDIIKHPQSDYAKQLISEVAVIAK
Experiment: ATP hydrolysis assay
Assay type: biochemical
Settings: GisA alone; details only in supplement

SMILES: Nc1ncnc2c1ncn2[C@@H]1O[C@H](COP(=O)(O)OP(=O)(O)OP(=O)(O)O)[C@@H](O)[C@H]1O [ATP]
- ATP hydrolysis assay: recombinant GisA purified from Escherichia coli exhibits ATP hydrolysis activity
